US20170119806A1, “[…] LACTONE DERIVATIVES AND METHODS OF MAKING AND USING THEREOF” (OHIO STATE INNOVATION FOUNDATION, priority 2014, published 2017)
“Also recorded” adds a separate entry of the source.

Columns and labels:
[1] = system: purified primary NK cells or NKL cells; test: Real-time RT-PCR of mRNA in NK cells; type: cell-based, human; conditions: 10 μM PL-C, 12 h
Procedure: (A) Chemical structure of PL-C (phyllanthusmin C, 4), (9) Healthy donor PBMCs (left panel) or enriched NK cells (right panel) were treated with DMSO vehicle control or 10 μM PL-C for 18 h in the presence of […] (10 ng/mL) or IL-15 (100 ng/mL). The cells were harvested and analyzed by intracellular flow cytometry to determine the frequency of IFN-γ^+ cells in CD56^+CD3^− NK cells (n=8 for PBMC and n=5 for enriched NK). (C) Highly purified (≧99.5%) human primary NK cells were treated with 10 μM PL-C for 18 h to determine the levels of IFN-γ secretion by ELISA. IFN-γ secretion from treatment with PL-C alone (left panel) or in combination with IL-12 (10 ng/mL, middle panel) or IL-15 (100 ng/mL, right panel) is shown. (D) Cells were treated as described in (C) and harvested at 12 h, IFNG mRNA expression was assessed by real-time RT-PCR, and the relative IFNG mRNA expression of each treatment was normalized to untreated vehicle control in the same donor. Data are shown as mean±SEM (n=6 in each treatment; error bars represent SEM). *p<0.05, **p<0.01, which denote statistical comparison between the two marked treatment groups (B-D). (E) Highly purified (≧99,5%) primary human NK cells were treated with 10 μM. PL-C in combination with various concentrations of IL-12 (10, 1, and 0.1 ng/mL) or IL-15 (100, 10, and 1 ng/mL) for 24 h to determine the levels of IFN-γ secretion. Representative data from one of three donors with the similar data are shown. *p<0.05, **p<0.01, which denote statistical comparison between the two marked treatment groups and are calculated from data of all tested donors. Error bars represent SD. […]
(A) Human […] were treated with DMSO vehicle control or 10 μM PL-C for 18 hours in the presence of IL-12 (10 ng/mL) or IL-15 (100 ng/mL), as described in FIG. 37C. […] (B) Purified primary NK cells were treated with IL-12 (10 ng/mL) or IL-15 (100 ng/mL) with or without 10 μM PL-C for 8 hours and were sequentially co-cultured with […] labeled ARH-77 cells at various effector/target cell ratios for additional 4 hours. ^51Cr release was measured by a TopCount counter. […]

[2] = system: primary NK cells cocultured with ARH-77 target cells; test: NK cell cytotoxicity assay (51Cr release); type: cell-based, human; conditions: 10 μM PL-C 8 h, then 4 h coculture, with IL-12 or IL-15; listed as PL-C
Procedure: (A) Human […] were treated with DMSO vehicle control or 10 μM PL-C for 18 hours in the presence of IL-12 (10 ng/mL) or IL-15 (100 ng/mL), as described in FIG. 37C. The cells were harvested for intracellular flow cytometry to determine the frequency of IFN-γ^+ cells in CD56^−CD3^+[…] or CD56^−CD3^+CD8^+T. Representative data from 1 out of 5 donors are shown. (B) Purified primary NK cells were treated with IL-12 (10 ng/mL) or IL-15 (100 ng/mL) with or without 10 μM PL-C for 8 hours and were sequentially co-cultured with […] labeled ARH-77 cells at various effector/target cell ratios for additional 4 hours. ^51Cr release was measured by a TopCount counter. Data shown are the means of 3 donors. […] Error bars represent S.D. (C) Purified primary NK cells were treated with 10 μM PL-C in the presence of IL-12 (10 ng/mL) (top) or IL-15 (100 ng/mL) (bottom) for 12 hours, and cell pellets were harvested for detecting granzyme A (GZMA), granzyme B (GZMB), perforin (PRF1) and Fas (Fasl) mRNA expression level by real-time RT-PCR. Data shown are the means of 6 donors. p>0.05, vehicle control versus PL-C in all panels. Error bars represent S.D.
Cytotoxicity assay. Cytotoxicity assay was performed as described previously (Yu J et al. Immunity 2006, 24, 575-590; Yu J et al. Blood 2010, 115, 274-281). […] The release of ^51Cr was counted on a TopCount counter (Canberra Packard, Meriden, Conn.). […]

COc1cc2c(OC3OCC(O)C(O)C3O)c3c(c(-c4ccc5c(c4)OCO5)c2cc1OC)C(=O)OC3 (stereo not shown) [Compound 4, Phyllanthusmin C]
IFNG mRNA expression in NK cells ([1]; alone or with IL-12 or IL-15): induced IFN-γ gene (IFNG) expression at the transcriptional level
mRNA expression of IL-12R and IL-15R chains ([1]; cotreated with IL-12): downregulated mRNA expression of IL-12Rβ1, IL-12Rβ2, and IL-15Rα
expression of cytotoxicity-associated genes (granzyme A, granzyme B, perforin, Fas ligand) ([1]; with IL-12 or IL-15): unaffected
NK cell cytotoxicity [2]: no statistically significant difference; also recorded: little or no; also recorded: did not activate NK cell cytotoxicity; also recorded: limited effect on NK cytotoxicity
